Results reported in ChEMBL document CHEMBL4382289, “Synthesis, Biological Evaluation and Structure-Activity Relationships of Diflapolin Analogues as Dual sEH/FLAP Inhibitors” (ACS Med Chem Lett, 2019).
pIC50: −log10 of the molar value.

Assays:
[1] = biological target: T1, Bifunctional epoxide hydrolase 2 (Homo sapiens, UniProt P34913); assay: Inhibition of recombinant human sEH preincubated for 10 mins followed by PHOME substrate addition and measured after 60 mins by fluorescence-based assay
T1 sequence (P34913 whole entry): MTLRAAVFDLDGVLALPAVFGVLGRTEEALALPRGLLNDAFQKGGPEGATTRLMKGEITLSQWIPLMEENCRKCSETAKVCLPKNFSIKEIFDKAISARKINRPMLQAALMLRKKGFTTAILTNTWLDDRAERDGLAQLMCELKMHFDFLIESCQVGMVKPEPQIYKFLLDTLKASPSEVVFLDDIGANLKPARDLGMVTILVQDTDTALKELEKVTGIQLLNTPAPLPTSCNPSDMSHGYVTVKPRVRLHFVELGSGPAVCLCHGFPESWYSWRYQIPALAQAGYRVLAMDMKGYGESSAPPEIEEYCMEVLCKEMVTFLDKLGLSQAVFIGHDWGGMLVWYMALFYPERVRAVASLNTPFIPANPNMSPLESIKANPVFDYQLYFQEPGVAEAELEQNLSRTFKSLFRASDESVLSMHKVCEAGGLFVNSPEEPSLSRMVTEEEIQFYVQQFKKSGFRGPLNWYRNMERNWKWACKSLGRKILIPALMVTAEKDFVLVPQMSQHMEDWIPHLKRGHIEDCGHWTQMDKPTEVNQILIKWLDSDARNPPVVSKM

[2] = biological target: T2, Arachidonate 5-lipoxygenase-activating protein (Homo sapiens, UniProt P20292); assay: Inhibition of 5-LO in human neutrophils preincubated for 10 mins followed by Ca2+ ionophore A23187 addition and measured after 10 mins by RP-HPLC analysis
T2 sequence (P20292 whole entry): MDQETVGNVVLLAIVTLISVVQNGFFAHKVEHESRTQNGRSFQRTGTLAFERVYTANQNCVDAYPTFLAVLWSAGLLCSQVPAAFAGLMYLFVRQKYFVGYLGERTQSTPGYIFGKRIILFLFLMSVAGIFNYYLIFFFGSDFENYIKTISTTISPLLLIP

| SMILES | pIC50 [1] | pIC50 [2] |
| --- | --- | --- |
| Cc1cc(OCc2nc3ccccc3s2)ccc1NC(=O)Nc1ccc(Cl)c(Cl)c1 | 7.64 | – |
| O=C(Nc1ccc(CCc2nc3ccccc3s2)cc1)Nc1ccc(Cl)c(Cl)c1 | 7.93 | < 5.00 |
| Cc1cc(OCc2nc3ccccc3s2)ccc1NC(=O)Nc1ccccc1Cl | 5.82 | 6.08 |
| O=C(Nc1ccc(Cl)cc1)Nc1ccc(OCc2nc3ccccc3s2)cc1 | 7.86 | 6.00 |
| O=C(Nc1ccc(OCc2nc3ccccc3s2)cc1)Nc1cc(Cl)cc(Cl)c1 | 7.82 | 7.05 |
| Cc1cc(OCc2nc3ccccc3s2)ccc1NC(=O)Nc1cccc(Cl)c1 | 7.80 | 6.80 |
| Cc1cc(OCc2nc3ccccc3s2)ccc1NC(=O)Nc1cc(Cl)cc(Cl)c1 | 7.70 | 7.10 |
| Cc1cc(NC(=O)Nc2ccccc2)ccc1OCc1nc2ccccc2s1 | 8.19 | 5.68 |
| Cc1cc(NC(=O)Nc2ccc(Cl)c(Cl)c2)ccc1OCc1nc2ccccc2s1 | 9.22 | 5.66 |
| Cc1cc(NC(=O)Nc2ccccc2Cl)ccc1OCc1nc2ccccc2s1 | 7.45 | 6.17 |
| O=C(Nc1ccc(OCc2nc3ccccc3s2)cc1)Nc1cccc(Cl)c1 | 7.59 | 6.77 |
| Cc1cc(NC(=O)Nc2ccc(Cl)cc2)ccc1OCc1nc2ccccc2s1 | 8.39 | < 5.00 |
| Cc1cc(OCc2nc3ccccc3s2)ccc1NC(=O)Nc1ccc(Cl)cc1 | 8.28 | 6.24 |
| O=C(Nc1ccc(OCc2nc3ccccc3s2)cc1)Nc1ccccc1Cl | 6.55 | 6.44 |
| Cc1cc(OCc2nc3ccccc3s2)ccc1NC(=O)Nc1ccccc1 | 7.21 | 6.14 |
| Cc1cc(NC(=O)Nc2cc(Cl)cc(Cl)c2)ccc1OCc1nc2ccccc2s1 | 9.10 | 6.14 |
| O=C(Nc1ccc(SCc2nc3ccccc3s2)cc1)Nc1ccc(Cl)c(Cl)c1 | 7.60 | 5.95 |
| O=C(Nc1ccc(/C=C/c2nc3ccccc3s2)cc1)Nc1ccc(Cl)c(Cl)c1 | 8.04 | 4.97 |
| Cc1cc(NC(=O)Nc2cccc(Cl)c2)ccc1OCc1nc2ccccc2s1 | 8.70 | 5.68 |
| O=C(Nc1ccc(OCc2nc3ccccc3s2)cc1)Nc1ccc(Cl)c(Cl)c1 | 7.99 | 6.24 |
| O=C(Nc1ccccc1)Nc1ccc(OCc2nc3ccccc3s2)cc1 | 6.95 | 6.38 |
